Experimental data reported in patent publication US20030100109A1, “Methods and compositions for in vitro germination and propagation of polygonatum cirrhifolium royle” (priority 2001, published 2003).
Several values for one entry are separate records, joined by “and”; a condition that tells them apart may be missing. Identical values can stand only once.

Test system: Polygonatum cirrhifolium Royle seeds
Assay: Induction of germination (hypocotyl emergence) on modified MS medium with GA3 at diurnal 30/20° C. in dark
Type: in vivo
Settings: modified MS culture medium, 20/30° C. in dark
Protocol: Ripe purplish berries from plants grown in the wild were collected and dehydrated for 15 days at room temperature (29° C.±2° C.). Seeds were collected from dehydrated berries and washed in tap water with 1-2 drops of Tween-20™ for 2 hours and rinsed three times in distilled water. Seeds were then surface sterilized with 0.1% mercuric chloride (HgCl2) for 3 minutes. Mercuric chloride was removed by washing seeds four times in sterile distilled water. Sterilized, rinsed seeds were placed on semi-solid culture medium in sterile disposable plastic Petri plates (10 cm×2 cm). Macro and micro nutrients in the basal medium were that of Murashige and Skoog's (Murashige, T. and Skoog, F. […]. Physiol Plant 15: 433 -497) but modified to contain 2.2 g/L NH4NO3, 2.0 g/L KNO3, 0.44 g/l CaCl2.2H2O, 0.37 g/L MgSO4.7H20, 0.17 g/L KH2PO4, 37.25 mg/L Na2 EDTA, 27.8 mg/L FeSO4.7H20, 0.83 mg/L KI, 6.2 mg/L H3BO3, 22.3 mg/L MnSO4.4H20, 8.6 mg/L ZnSO4.7H20, 0.25 mg/L Na2 MoO4.2H20, 0.025 mg/L CuSO4.5H2O, 0.025 mg/L CoCl2.6H20. This medium was supplemented with 250 mg/L myo-inosital, 0.5 mgl/l nicotinic acid, 0.5 mg/L pyridoxine HCl, 3 mg/L thiamine HCl, 2 mg/L glycine, 30 g/L sucrose, 7.5 g/L agar and 2, 10, 25, and 50 mg/L gibberellic acid. The pH of the medium was adjusted to 5.8 before adding agar. Medium was sterilized at 121° C. (15 lb. psi pressure) for 20 minutes. […] Seeds with emerged hypocotyl were transferred under aseptic conditions to the above defined basal culture medium containing gibberellic acid at 5, 25, 50 and 100 mg/L. Transferred plants were incubated in an environment having 8-16-hr days under about 2000 lux of light and about 8-16-hr nights in total darkness at a constant temperature of 20° C. ([…]) and at 50-60% RH. Illumination was provided by 40-watt cool, white fluorescent tubes. Germination synchronization as indicated by differentiated epicotyl with emergent coleoptile and radicle was recorded on daily basis. Tables 1 and 2 show the induction of germination as indicated by the emergence of hypocotyl at temperature of 30° C. (±2° C.; dark; RH 50-60%) and diurnal temperature of 30/20° C. (±2° C.; dark; RH 50-60%). In this experiment also there were 4 treatments with varying levels of GA3 2-50 mg/L. Supplemented to the modified MS basal culture medium containing of 2.2 g/L NH4NO3, 2.0 g/L KNO3, 0.44 g/l CaCl2.2H2O, 0.37 g/L MgSO4.7H20, 0.17 g/L KH2PO4, 37.25 mg/L Na2 EDTA, 27.8 mg/L FeSO4.7H20, 0.83 mg/L KI, 6.2 mg/L H3BO3, 22.3 mg/L MnSO4.4H20, 8.6 mg/L ZnSO4.7H20, 0.25 mg/L Na2 MoO4.2H20, 0.025 mg/L CuSO4.5H2O, 0.025 mg/L CoCl2.6H20, […], 0.5 mg/L nicotinic acid, 0.5 mg/L pyridoxine HCl, 3 mg/L thiamine HCl, 2 mg/L glycine, 30 g/L sucrose and 7.5 g/L agar. Cultures were incubated under diurnal temperature regime of 30/20° C. (dark). Each treatment consisted of 15 replicates with 5 seeds in each. Germination is induced in all the treatments (table 2). Maximum germination of 62.12% is obtained at 50 mg/L Of GA3.

In the case of `C=C1C[C@]23C[C@@]1(O)CC[C@H]2[C@@]12C=C[C@H](O)[C@@](C)(C(=O)O1)[C@H]2[C@@H]3C(=O)O` [GA3, gibberellic acid], the Duration of germination (GA3 2 mg/L) is reported as 32-73, the Percent germination (GA3 2 mg/L) is reported as 12.41 ± 6.17% and the Duration of germination (GA3 10 mg/L) is reported as 34-72. The Percent germination (GA3 10 mg/L) was 18.06 ± 4.32%, the Duration of germination (GA3 25 mg/L) was 27-63 and the Percent germination (GA3 25 mg/L) was 46.00 ± 5.11%. The Duration of germination (GA3 50 mg/L) was 23-58 and the Percent germination (GA3 50 mg/L) was 62.12% and 62.12 ± 3.66%.
